{"source": "patent US20090246273A1", "about": "“Ketorolac Sublingual Spray for the Treatment of Pain” (priority 2008, published 2009)", "key": {"[1]": {"details": "rapid metabolism of ketorolac; background on the intravenous mode of delivery; cited from earlier work"}, "[2]": {"test": "In vivo absorption of ketorolac spray from the sublingual cavity (plasma levels vs intravenous)", "set-up": "species or system rabbit", "details": "rabbits", "procedure": "These experiments determine the bioavailability of ketorolac after transmucosal administration to the sublingual tissue in rabbit and compare it to that after intravenous administration.\nThe transmucosal absorption of ketorolac was measured using an in vivo technique in rabbits. Following introduction of lidocaine local anesthesia, a catheter was placed in the marginal ear artery of the rabbit for blood sample collection. For intravenous administration, a catheter was placed in the marginal ear vein of the rabbit and ketorolac aqueous solution (0.5 mg/kg, 0.1 mL) was administered; a sterile drug solution was prepared by filtration (double 0.22 μm filters). A dose of […] ketorolac was injected into the marginal ear vein cannula followed by a 0.1 mL flush with 10% (v/v) heparin/normal saline solution to keep the cannula patent.\nFor sublingual spray administration, the ketorolac dose (3 mg/kg, 0.1 mL) of the ketorolac formulation was applied by spray to the sublingual mucosa of the rabbit.\nAliquot parts of 0.5 mL blood samples were collected at predetermined time points, collected into pre-heparinized tubes and immediately placed on ice. […]\nBioavailability of sublingually administered drug was calculated by comparing the plasma drug concentration between sublingual and intravenous delivery routes and expressed as a percentage of the intravenous bioavailability. […]"}}, "data": [{"molecule": "O=C(c1ccccc1)c1ccc2n1CCC2C(=O)O", "note": "(stereo not drawn) [ketorolac, 5-benzoyl-2,3-dihydro-1H-Pyrrolizine-1-carboxylic acid]", "values": [{"measurement": "half-life", "setting": "[1]", "value": "4 to 5", "unit": "h"}, {"measurement": "time of peak plasma concentration following transmucosal administration", "setting": "[2]; sublingual spray 3 mg/kg single dose, n=3", "value": "approximately 10 minutes"}, {"measurement": "absorption following transmucosal administration through the sublingual route (comparing areas under the plasma concentration versus time curves)", "setting": "[2]; sublingual spray 3 mg/kg vs intravenous 0.5 mg/kg, over 180 minutes", "value": "rapidly and completely absorbed"}]}]}
